Reference: patent publication US8648198B2, “Phenylethanolamine-based NMDA receptor antagonists” (priority 2011, dated 2014)
Like-named read-outs stand apart in the source and are kept apart here.

Assays:
[1] = target: mixture of the GluN1b and GluN2B ATD proteins (Xenopus laevis (GluN1-4b ATD) / Rattus norvegicus (GluN2B ATD), UniProt A0A1L8F5J9+Q00960, E186G/INS190SKKRNYENLDQLSYDNKRGPK/N350Q/N61Q); assay: Isothermal titration calorimetry (ITC), direct binding to mixed ATD proteins; set-up: species or system Xenopus laevis GluN1-4b / Rattus Norvegicus GluN2B
[2] = test system: GluN1b ATD; assay: Isothermal titration calorimetry (ITC), GluN1b ATD alone; type: binding, Xenopus laevis; details: GluN1b ATD individually injected with ifenprodil
[3] = test system: GluN2B ATD; assay: Isothermal titration calorimetry (ITC), GluN2B ATD alone; type: binding, Rattus Norvegicus; details: GluN2B ATD individually injected with ifenprodil
[4] = target: T1, GluN1-1a (WT)/GluN2B (WT) (Rattus norvegicus, UniProt P35439+Q00960); assay: Ifenprodil dose-response, recordings from Xenopus oocytes; type: cell-based; details: mean ± s.d.
T1 construct: expressed in transfected cells; host or cells: Xenopus oocytes (per the earlier reading)

[5] = target: T2, GluN1-1b (WT)/GluN2B (WT) (Rattus norvegicus, UniProt P35439+Q00960); assay: as above; type: cell-based; details: mean ± s.d.
T2 construct: expressed in transfected cells; host or cells: Xenopus oocytes (per the earlier reading)

[6] = target: T3, GluN1-1b (A75Q)/GluN2B (WT) (Rattus norvegicus, UniProt P35439+Q00960, A75Q); assay: as above; type: cell-based; details: mean ± s.d.
T3 construct: expressed in transfected cells; host or cells: Xenopus oocytes (per the earlier reading)

[7] = target: T4, GluN1-1b (F113S)/GluN2B (WT) (Rattus norvegicus, UniProt P35439+Q00960, F113S); assay: as above; type: cell-based; details: mean ± s.d.
T4 construct: expressed in transfected cells; host or cells: Xenopus oocytes (per the earlier reading)

[8] = target: T5, GluN1-1b (L135N)/GluN2B (WT) (Rattus norvegicus, UniProt P35439+Q00960, L135N); assay: as above; type: cell-based; details: mean ± s.d.
T5 construct: expressed in transfected cells; host or cells: Xenopus oocytes (per the earlier reading)

[9] = target: T6, GluN1-1b (WT)/GluN2B (I82S) (Rattus norvegicus, UniProt P35439+Q00960, I82S); assay: as above; type: cell-based; details: mean ± s.d.
T6 construct: expressed in transfected cells; host or cells: Xenopus oocytes (per the earlier reading)

[10] = target: T7, GluN1-1b (WT)/GluN2B (Q110A) (Rattus norvegicus, UniProt P35439+Q00960, Q110A); assay: as above; type: cell-based; details: mean ± s.d.
T7 construct: expressed in transfected cells; host or cells: Xenopus oocytes (per the earlier reading)

[11] = target: T8, GluN1-1b (WT)/GluN2B (I111M) (Rattus norvegicus, UniProt P35439+Q00960, I111M); assay: as above; type: cell-based; details: mean ± s.d.
T8 construct: expressed in transfected cells; host or cells: Xenopus oocytes (per the earlier reading)

[12] = target: T9, GluN1-1b (WT)/GluN2B (I111S) (Rattus norvegicus, UniProt P35439+Q00960, I111S); assay: as above; type: cell-based; details: mean ± s.d.
T9 construct: expressed in transfected cells; host or cells: Xenopus oocytes (per the earlier reading)

[13] = target: T10, GluN1/GluN2A receptors, GluN2A Met112Ile (Rattus norvegicus, UniProt P35439+Q00959, M112I); assay: Ifenprodil sensitivity of mutant GluN1/GluN2A receptors; type: cell-based; details: GluN2A Met112Ile in GluN1/GluN2A receptors
T10 construct: expressed in transfected cells
Source text: Thus, the insensitivity of the GluN1/GluN2A receptors to phenylethanolamine may stem from a fundamental difference in a mode of subunit association between GluN1/GluN2A and GluN1/GluN2B at ATD.

[14] = target: T11, GluN1-4b (Asn70Cys)/GluN2B (Thr324Cys) (Rattus norvegicus, UniProt P35439+Q00960, N70C/T324C); assay: Ion channel activity of cysteine mutant receptors by TEVC (R1-R1 cross-link); type: cell-based
T11 construct: expressed in transfected cells
Source text: (§1) To further validate the physiological relevance of the hetero-dimeric assembly, cysteine mutants at the subunit interface were engineered using the ifenprodil-bound GluN1b/GluN2B ATD structure as a guide in a context of the intact rat GluN1-4b/GluN2B receptors so that they would form spontaneous disulphide bonds if the mutated residues are proximal to each others. Toward this end, two pairs of cysteine mutants, GluN1-4b (Asn70Cys)/GluN2B (Thr324Cys) and GluN1-4b (Leu341Cys)/GluN2B (Asp210Cys) were designed, which “locked” the R1-R1 and R1-R2 interfaces, respectively FIG. 12a-b). The mutant receptors were then expressed in a mammalian cell culture, and analyzed for formation of disulphide-linked oligomers in western blots. When mutant receptors of one subunit were expressed with wild-type receptors of the other, they gave rise to monomeric bands (110 KDa and 170 KDa for GluN1-4b and GluN2B, respectively; arrow 2 and 3) identical to the wild-type GluN1-4b/GluN2B receptors in both reducing and non-reducing condition. […]
(§2) To understand the functional effects of “locking” the R1-R1 and R1-R2 interactions in the GluN1b/GluN2B ATDs, the ion channel activities of the cysteine mutant receptors were measured by TEVC. […]

[15] = target: T12, GluN1-4b (Leu341Cys)/GluN2B (Asp210Cys) (Rattus norvegicus, UniProt P35439+Q00960); assay: Ion channel activity of cysteine mutant receptors by TEVC (R1-R2 cross-link); type: cell-based; details: R1-R2 cross-link, non-reducing, even at 3 μM ifenprodil
T12 construct: expressed in transfected cells
Source text: as §1, §2

[16] = target: T13, GluN1-4b (Leu341Cys)/GluN2B (Asp210Cys) (Rattus norvegicus, UniProt P35439+Q00960, D210C/L320C); assay: as above; type: cell-based; details: R1-R2 cross-link broken by application of DTT
T13 construct: expressed in transfected cells
Source text: as §1, §2

mixture of the GluN1b and GluN2B ATD proteins, sequence (Q00960 31-394, stated change not applied, other chains not shown): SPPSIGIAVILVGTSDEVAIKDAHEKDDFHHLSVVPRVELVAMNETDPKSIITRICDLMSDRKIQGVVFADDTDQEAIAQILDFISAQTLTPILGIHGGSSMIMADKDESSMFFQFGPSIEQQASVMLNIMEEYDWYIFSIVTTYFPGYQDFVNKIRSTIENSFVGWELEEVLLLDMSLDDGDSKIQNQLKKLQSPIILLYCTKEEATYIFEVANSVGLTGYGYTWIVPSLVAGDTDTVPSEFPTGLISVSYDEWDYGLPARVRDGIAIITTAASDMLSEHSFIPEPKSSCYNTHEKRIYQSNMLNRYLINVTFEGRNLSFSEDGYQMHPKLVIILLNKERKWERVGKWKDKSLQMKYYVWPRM
T9 sequence (Q00960 27-1482 I111S, other chains not shown): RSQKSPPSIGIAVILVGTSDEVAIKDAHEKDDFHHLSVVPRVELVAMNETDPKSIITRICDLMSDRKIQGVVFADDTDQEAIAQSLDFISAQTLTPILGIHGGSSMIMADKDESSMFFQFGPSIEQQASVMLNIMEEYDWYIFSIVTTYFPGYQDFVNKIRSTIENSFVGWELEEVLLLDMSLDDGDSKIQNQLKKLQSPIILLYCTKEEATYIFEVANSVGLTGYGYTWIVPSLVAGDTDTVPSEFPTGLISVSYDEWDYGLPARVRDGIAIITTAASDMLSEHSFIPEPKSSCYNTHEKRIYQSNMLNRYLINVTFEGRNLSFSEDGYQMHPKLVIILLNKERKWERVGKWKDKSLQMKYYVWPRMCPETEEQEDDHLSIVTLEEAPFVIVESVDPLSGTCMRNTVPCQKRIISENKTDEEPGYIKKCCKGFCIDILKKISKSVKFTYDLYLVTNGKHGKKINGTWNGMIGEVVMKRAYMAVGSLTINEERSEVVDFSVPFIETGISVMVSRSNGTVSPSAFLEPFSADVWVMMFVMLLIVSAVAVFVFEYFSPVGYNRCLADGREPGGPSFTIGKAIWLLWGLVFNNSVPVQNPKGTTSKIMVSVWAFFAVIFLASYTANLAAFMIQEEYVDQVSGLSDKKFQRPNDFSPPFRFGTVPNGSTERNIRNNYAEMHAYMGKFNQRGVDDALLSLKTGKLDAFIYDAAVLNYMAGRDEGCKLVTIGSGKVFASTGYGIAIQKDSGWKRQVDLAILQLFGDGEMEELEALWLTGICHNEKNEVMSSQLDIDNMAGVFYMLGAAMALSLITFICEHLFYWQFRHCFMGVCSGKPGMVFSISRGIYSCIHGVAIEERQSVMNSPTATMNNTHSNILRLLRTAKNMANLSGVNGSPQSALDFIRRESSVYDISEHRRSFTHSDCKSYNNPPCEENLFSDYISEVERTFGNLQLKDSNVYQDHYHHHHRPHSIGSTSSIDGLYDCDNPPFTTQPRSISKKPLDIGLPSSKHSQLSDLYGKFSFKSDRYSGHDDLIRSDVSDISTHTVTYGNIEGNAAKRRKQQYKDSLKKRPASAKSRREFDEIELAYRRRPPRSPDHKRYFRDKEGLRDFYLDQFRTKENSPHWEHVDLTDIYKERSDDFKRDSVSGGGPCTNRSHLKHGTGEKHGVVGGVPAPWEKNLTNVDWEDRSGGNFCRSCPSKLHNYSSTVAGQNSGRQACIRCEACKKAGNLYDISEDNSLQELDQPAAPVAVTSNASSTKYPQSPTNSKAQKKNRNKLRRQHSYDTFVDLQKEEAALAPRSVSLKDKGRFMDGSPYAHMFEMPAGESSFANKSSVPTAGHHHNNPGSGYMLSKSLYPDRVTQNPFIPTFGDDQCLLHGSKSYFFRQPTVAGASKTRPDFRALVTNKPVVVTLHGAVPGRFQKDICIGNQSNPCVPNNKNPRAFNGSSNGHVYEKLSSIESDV
T1 sequence (Q00960 27-1482, other chains not shown): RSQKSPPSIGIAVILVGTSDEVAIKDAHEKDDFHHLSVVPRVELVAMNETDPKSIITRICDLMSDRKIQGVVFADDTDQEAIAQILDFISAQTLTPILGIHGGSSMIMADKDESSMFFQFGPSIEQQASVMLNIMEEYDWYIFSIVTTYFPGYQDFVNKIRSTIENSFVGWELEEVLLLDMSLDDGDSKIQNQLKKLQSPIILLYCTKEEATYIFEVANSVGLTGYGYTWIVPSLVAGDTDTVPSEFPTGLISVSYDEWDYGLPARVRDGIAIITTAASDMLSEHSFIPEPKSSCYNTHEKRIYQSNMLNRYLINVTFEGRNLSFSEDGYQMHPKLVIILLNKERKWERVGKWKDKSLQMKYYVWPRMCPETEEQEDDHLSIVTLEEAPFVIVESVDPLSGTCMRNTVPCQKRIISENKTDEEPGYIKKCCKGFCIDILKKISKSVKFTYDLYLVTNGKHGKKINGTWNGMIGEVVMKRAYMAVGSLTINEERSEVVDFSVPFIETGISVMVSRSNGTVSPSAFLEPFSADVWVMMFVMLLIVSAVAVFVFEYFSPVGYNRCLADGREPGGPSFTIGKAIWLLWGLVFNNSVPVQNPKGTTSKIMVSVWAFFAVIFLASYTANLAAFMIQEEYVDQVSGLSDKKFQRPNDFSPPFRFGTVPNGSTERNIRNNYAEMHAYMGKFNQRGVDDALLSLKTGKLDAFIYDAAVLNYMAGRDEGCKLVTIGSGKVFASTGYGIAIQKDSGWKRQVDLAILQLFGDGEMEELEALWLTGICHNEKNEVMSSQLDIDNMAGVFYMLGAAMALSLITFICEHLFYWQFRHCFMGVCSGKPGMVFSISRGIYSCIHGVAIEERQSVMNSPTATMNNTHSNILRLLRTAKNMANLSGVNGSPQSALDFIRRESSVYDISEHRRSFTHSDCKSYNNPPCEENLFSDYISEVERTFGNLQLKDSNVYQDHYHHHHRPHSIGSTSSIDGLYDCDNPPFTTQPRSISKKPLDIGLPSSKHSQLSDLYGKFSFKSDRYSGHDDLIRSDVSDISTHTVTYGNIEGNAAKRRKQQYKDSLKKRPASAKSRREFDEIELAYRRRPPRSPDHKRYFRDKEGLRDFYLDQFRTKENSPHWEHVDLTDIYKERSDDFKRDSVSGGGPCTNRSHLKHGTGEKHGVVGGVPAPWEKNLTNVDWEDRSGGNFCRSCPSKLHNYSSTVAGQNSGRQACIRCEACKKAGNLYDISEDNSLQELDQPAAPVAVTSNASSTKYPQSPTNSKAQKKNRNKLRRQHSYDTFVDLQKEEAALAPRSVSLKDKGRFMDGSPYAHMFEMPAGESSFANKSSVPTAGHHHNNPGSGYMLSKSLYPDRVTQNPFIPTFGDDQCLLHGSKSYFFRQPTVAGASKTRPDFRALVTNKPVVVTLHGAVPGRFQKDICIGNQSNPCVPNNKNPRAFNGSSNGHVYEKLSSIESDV
T2 sequence (Q00960 27-1482, other chains not shown): as above

Kd ([1]; ITC, mixture of GluN1b and GluN2B ATD proteins, read-out: Kd)	Structure (SMILES)	Kd [1]	binding (heat) by ITC [2]	binding (heat) by ITC [3]	% inhibition [4]	% inhibition [5]	% inhibition [6]	% inhibition [7]	% inhibition [8]	% inhibition [9]	% inhibition [10]	% inhibition [11]	% inhibition [12]	ifenprodil sensitivity [13]	effect of the disulphide bond on ifenprodil sensitivity [14]	ifenprodil inhibition [15]	ifenprodil sensitivity after breaking the disulphide cross-link [16]
	C[C@@H]([C@H](O)c1ccc(O)cc1)N1CCC(Cc2ccccc2)CC1 (racemic) [ifenprodil]	320 nM	no evidence of binding	no evidence of binding	95.0 ± 2.5%	95.2 ± 2.0%	82.1 ± 1.4%	87.7 ± 1.4%	90.0 ± 3.7%	55.7 ± 0.7%	91.5 ± 2.2%	93.0 ± 2.2%	69.3 ± 2.6%	did not confer	only a minor effect	almost completely abolished	regain sensitivity to ifenprodil
60 nM	C[C@@H](CN1CCC(Cc2ccccc2)CC1)[C@@H](O)c1ccc(O)cc1 [Ro 25-6981]																
